The results in this text go back to patent publication EP0329902A1, “Use of quinolizinone and quinolizine derivatives in the manufacture of medicaments for the treatment of psychosis” (MERRELL DOW PHARMACEUTICALS INC., priority 1988, dated 1989).

Structures can show the parent of a compound that is named as a salt.

In this test the test system is Von Bezold-Jarisch Reflex induced by 5-HT. Kind of test: Von Bezold-Jarisch Reflex induced by 5-HT injected intravenously. Format: in vivo. As to conditions: rat. From the text: The activity of these compounds agianst 5-HT can be assessed in vivo by measurement of the effect of the compound on the Von Bezold-Jarisch Reflex induced by 5-HT injected intravenously into the rat (see Paintal A.S., Physiol. Rev. 53, 159-227, 1973; J.R. Fozard, Naunyn-Schmiedeberg's Arch. Pharmacol., 326, 1984, 36-44). The transient cardiac slowing arises from an increased afferent vagus activity arising from stimulation by 5-HT of sensory afferent fibres in and around the heart.

Where [1] appears, read: doses of 0.01-0.1 mg/kg given intravenously.
The mark [2] stands for this setting: doses of 0.25-1 mg/kg given orally.

Consider `Cc1cc(C)cc(C(=O)OC2CC3CC4CC(C2)N3CC4=O)c1` (stereo not drawn) [endo-8-(3,5-dimethylbenzoyloxy)hexahydro-2,6-methano-2H-quinolizin-3(4H)-one], for which the “suppression of the Von Bezold-Jarisch Reflex response” value is recorded as “suppressed the response dose-dependently” under setting [1] and “suppressed the response dose-dependently” under setting [2].
For the compound `O=C(OC1CC2CC3CC(C1)N2CC3=O)c1c[nH]c2ccccc12` (stereo not drawn) [endo-hexahydro-8-(3-indolylcarbonyloxy)-2,6-methano-2H-quinolizin-3(4H)one hydrochloride], the “suppression of the Von Bezold-Jarisch Reflex response” value is recorded as “suppressed the response dose-dependently” under setting [1] and “suppressed the response dose-dependently” under setting [2].
